System: subjects with moderately to severely active RA who have an inadequate response to methotrexate (MTX)
Assay: Study 1 (add-on to MTX) - Aspartate Aminotransferase (AST) levels
Assay type: in vivo, human
Details: 24 weeks results
Method: Double-blind, placebo-controlled add on study in subjects with moderately to severely active RA who have an inadequate response to methotrexate (MTX) (oral or parenteral).
595 subjects randomized to one of 6 dose regimens of Compound 1 (dosed as [Compound 1:HCl:3H2O]) (3 dose levels administered either once or twice daily) or placebo on top of each subject's stable dose of MTX.
Compound 1 (dosed as [Compound 1:HCl:3H2O]) is dosed for twelve weeks once daily (q.d.) (50 mg, 100 mg or 200 mg) or twice daily (b.i.d.) (25 mg, 50 mg or 100 mg); or placebo.
At Week 12, the subjects on placebo who have not achieved 20% improvement in swollen joint count (SJC66) and tender joint count (TJC68) are re-randomized automatically to receive Compound 1 (dosed as a [Compound 1:HCl:3H2O]) either at 100 mg q.d. or 50 mg b.i.d. doses in a blinded fashion; subjects on 50 mg q.d. who have not achieved 20% improvement in SJC66 and TJC68 will be assigned to 100 mg q.d. and subjects on 25 mg b.i.d. that have not achieved a 20% improvement in SJC66 and TJC68 will be assigned to 50 mg b.i.d. Subjects who switch treatment at week 12 are handled as if they discontinued at week 12 for the purpose of statistical analysis, whereas subjects in the other groups will maintain their randomized treatment until Week 24.
AST levels determination is available at Quest Diagnostics, Clinical Trials, Quest House, 125-135 Staines Road, Hounslow, Middlesex, TW3 3JB, United Kingdom under Catalogue n#84450. For Study 3, the data are obtained at BARC Europe, 3B,Industrie Park, Zwijnaarde, B-9052 Ghent, Belgium.
AST catalyzes the transamination of aspartate and 2-oxoglutarate, forming L-glutamate and oxalacetate. The oxalacetate is reduced to L-malate by malate dehydrogenase, whilst NADH is converted to NAD+, measured spectrophotometrically. Guidelines for the AST value have been issued by the association for Clinical Biochemistry and Laboratory Medicine, 130-132 Tooley Street LONDON SE1 2TU, united Kingdom, wherein the AST value should be below 34 U/l in Female and below 45 U/L in male. As disclosed in the respective study protocols for Study 1 or 2, at week 12, depending on the outcome of their treatment, the subjects may be continued in their initial treatment course, or reassigned to another treatment group in a randomized blinded fashion until week 24. Therefore, the number of subjects (N) for the period of either 12 weeks, or 24 weeks is provided to reflect this redistribution at week 12.

[1] = continued 100 mg b.i.d., week 1
[2] = continued 100 mg b.i.d., week 2
[3] = continued 100 mg b.i.d., week 4
[4] = continued 100 mg b.i.d., week 8
[5] = continued 100 mg b.i.d., week 12
[6] = continued 100 mg b.i.d., week 16
[7] = continued 100 mg b.i.d., week 20
[8] = continued 100 mg b.i.d., week 24

O=C(Nc1nc2cccc(-c3ccc(CN4CCS(=O)(=O)CC4)cc3)n2n1)C1CC1 [Compound 1, cyclopropanecarboxylic acid {5-[4-(1,1-dioxo-thiomorpholin-4-ylmethyl)-phenyl]-[1,2,4]triazolo[1,5-a]pyridin-2-yl}-amide]
Study 1 - AST Mean CFB (continued 50 mg q.d., week 12): 0.6 IU/L | Study 1 - AST Mean percentage CFB (continued 50 mg q.d., week 12): 11.4% | Study 1 - AST Mean CFB (continued 50 mg q.d., week 16): 1.4 IU/L | Study 1 - AST Mean percentage CFB (continued 50 mg q.d., week 16): 15.1% | Study 1 - AST Mean CFB (continued 50 mg q.d., week 20): 2.1 IU/L | Study 1 - AST Mean percentage CFB (continued 50 mg q.d., week 20): 16.8% | Study 1 - AST Mean CFB (continued 50 mg q.d., week 24): 1.0 IU/L | Study 1 - AST Mean percentage CFB (continued 50 mg q.d., week 24): 12.9% | Study 1 - AST Mean CFB [1]: 1.4 IU/L | Study 1 - AST Mean percentage CFB [1]: 10.0% | Study 1 - AST Mean CFB [2]: 2.3 IU/L | Study 1 - AST Mean percentage CFB [2]: 14.1% | Study 1 - AST Mean CFB [3]: 2.6 IU/L | Study 1 - AST Mean percentage CFB [3]: 19.1% | Study 1 - AST Mean CFB [4]: 1.9 IU/L | Study 1 - AST Mean percentage CFB [4]: 17.4% | Study 1 - AST Mean CFB [5]: 2.5 IU/L | Study 1 - AST Mean percentage CFB [5]: 20.1% | Study 1 - AST Mean CFB [6]: 3.5 IU/L | Study 1 - AST Mean percentage CFB [6]: 25.2% | Study 1 - AST Mean CFB [7]: 3.0 IU/L | Study 1 - AST Mean percentage CFB [7]: 23.1% | Study 1 - AST Mean CFB [8]: 5.0 IU/L | Study 1 - AST Mean percentage CFB [8]: 37.6% | Study 1 - AST Mean CFB (continued 100 mg q.d., week 1): 3.0 IU/L | Study 1 - AST Mean percentage CFB (continued 100 mg q.d., week 1): 13.5% | Study 1 - AST Mean CFB (continued 100 mg q.d., week 2): 1.0 IU/L | Study 1 - AST Mean percentage CFB (continued 100 mg q.d., week 2): 9.4% | Study 1 - AST Mean CFB (continued 100 mg q.d., week 4): 1.6 IU/L | Study 1 - AST Mean percentage CFB (continued 100 mg q.d., week 4): 11.2% | Study 1 - AST Mean CFB (continued 100 mg q.d., week 8): 2.8 IU/L | Study 1 - AST Mean percentage CFB (continued 100 mg q.d., week 8): 17.1% | Study 1 - AST Mean CFB (continued 100 mg q.d., week 12): 2.4 IU/L | Study 1 - AST Mean percentage CFB (continued 100 mg q.d., week 12): 15.7% | Study 1 - AST Mean CFB (continued 100 mg q.d., week 16): 1.5 IU/L | Study 1 - AST Mean percentage CFB (continued 100 mg q.d., week 16): 11.5% | Study 1 - AST Mean CFB (continued 100 mg q.d., week 20): 2.6 IU/L | Study 1 - AST Mean percentage CFB (continued 100 mg q.d., week 20): 19.2% | Study 1 - AST Mean CFB (continued 100 mg q.d., week 24): 4.4 IU/L | Study 1 - AST Mean percentage CFB (continued 100 mg q.d., week 24): 28.6% | Study 1 - AST Mean CFB (continued 200 mg q.d., week 1): 3.1 IU/L | Study 1 - AST Mean percentage CFB (continued 200 mg q.d., week 1): 16.1% | Study 1 - AST Mean CFB (continued 200 mg q.d., week 2): 1.9 IU/L | Study 1 - AST Mean percentage CFB (continued 200 mg q.d., week 2): 12.8% | Study 1 - AST Mean CFB (continued 200 mg q.d., week 4): 2.7 IU/L | Study 1 - AST Mean percentage CFB (continued 200 mg q.d., week 4): 18.7% | Study 1 - AST Mean CFB (continued 200 mg q.d., week 8): 4.5 IU/L | Study 1 - AST Mean percentage CFB (continued 200 mg q.d., week 8): 27.2% | Study 1 - AST Mean CFB (continued 200 mg q.d., week 12): 4.8 IU/L | Study 1 - AST Mean percentage CFB (continued 200 mg q.d., week 12): 28.8%
